US9315544B2, “Method of treating eosinophilia by administering an immunomodulating peptide” (National Tsing Hua University, priority 2012, dated 2016)

Legend:
[1] = test system: mouse colon cancer cells; test: Transwell migration assay, mouse colon cancer cells; format: cell-based; conditions: 5 μM CMP pretreatment 30 min, 18 hours
Procedure: FIG. 10 illustrates Tumor migration inhibition by CMP. A549, H460 and mouse colon cancer cells were incubated with CMP at 37° C. for 30 min before adding to the top chamber of transwell membranes in 24-well dishes at a density of 2×10^4 cells/well. Data represented the mean±S.E. of triplicate samples from a representative experiment. The experiment was repeated at least three times with similar results
Cancer cell inhibition by CMP was performed in a 24-well Transwell chamber consisting of a cell culture insert (6.4 mm diameter, 8-1 μm pore polyethylene tetraphtalate membrane, [Becton Dickinson]) set in each well of a 24-well companion plate (Becton Dickinson). Briefly, 3×10^4 cancer cells were suspended and pretreated with 5 and 12.5 μM CMP for 30 min in a total volume of 200 μL. Cell suspensions were inoculated into the upper chamber of an insert, 5% fetal bovine serum (FBS) in medium as a chemoattractant was added to the plate well in the bottom chamber, and incubated for 18 hours in a humidified incubator at 37° C. with 5% CO2. The non-migratory cells on the upper membrane surface were removed with a cotton swab, and the migratory cells attached to the lower membrane surface were fixed with 4% paraformaldehyde and stained with 0.2% crystal violet. The number of migrated cells was counted in four randomly selected high power fields under microscope. […]

[2] = test system: goblet cell hyperplasia; test: Lung histopathology (PAS), goblet cell hyperplasia score; format: in vivo, BALB/c mouse; conditions: eIN+mIT+eIN group (CMP days 1 to 22)
Excerpt: FIG. 4 illustrates experimental design. All groups except control group were immunized with mite crude extract allergen on days 1 and 8, then mite crude extract allergen intratracheally on day 15 in all mite treated group, BALB/c mouse were divided into six groups (1) control group (PBS), (2) mites delivered intratracheally (mIT, mite on day 15) alone, (3) CMP intranasal (eIN, CMP on days 1 to 22) alone, (4) preventive-treatment group (eIN+mIT, CMP on days 1 to 14, mite on day 15) (5) therapy-treatment group (mIT+eIN, mite on day 15, CMP on days 15 to 22), and (6) preventive- and therapeutic-treatment group (eIN+mIT+eIN, CMP on days 1 to 22, mite on day 15).
FIG. 6A-6B illustrates inhibitory effect of CMP on influx of inflammatory cells. […] (A) Scores for peri-bronchiolar, alveolar inflammation and (B) PAS were determined based on the histological sections. Each result was expressed as the mean±S.D., n=4. ***, P<0.001. […]
The formalin-fixed lung sections stained with hematoxylin and eosin (H&E) were assigned a unit value for alveolar, peri-bronchiolar, and total inflammation by computing the means of three independent scores for three randomly selected fields. […] For evaluating the hyperplasia goblet cells, medium-sized airways were assessed in sections stained with periodic acid-Schiff (PAS) stain. Two reviewers independently and randomly scored 10 fields of each slide. […]

NYRWRCKNQN (CMP)
decrease of migration activity [1]: 60% | score of goblet cell hyperplasia compared with mIT group [2]: lower score
